PubChem BioAssay AID248 (DTP/NCI, 2004)
Values joined by “and” are separate entries in the source; they are usually repeats but may differ in a detail not shown here. Identical values can stand only once. Toxic doses and inconclusive results are not listed. No stated cut-off is given here; in the data, active means T/C of 150% or more; inactive means T/C below 125%.

System: L1210 leukemia ip in BDF1 mice, survival T/C
Assay: NCI In Vivo Anticancer Drug Screen. Data for tumor model L1210 Leukemia (intraperitoneal) in B6D2F1 (BDF1) mice
Settings: endpoint: mean survival time, higher = longer survival
In short: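 Antitumor effect is assessed in tumor-bearing animals. Survival in the compound arm is compared with a vehicle-dosed control arm and expressed as their quotient.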

[1] = dose: 100.0 mg/kg/injection, schedule: Q01DX001 (ip), vehicle: Klucel (hydroxypropylcellulose) (HPC)
[2] = dose: 100.0 mg/kg/injection, schedule: Q01DX009 (ip), vehicle: Klucel (hydroxypropylcellulose) (HPC)
[3] = dose: 100.0 mg/kg/injection, schedule: Q04DX003 (ip), vehicle: Klucel (hydroxypropylcellulose) (HPC)
[4] = dose: 200.0 mg/kg/injection, schedule: Q01DX009 (ip), vehicle: Klucel (hydroxypropylcellulose) (HPC)
[5] = dose: 200.0 mg/kg/injection, schedule: Q04DX003 (ip), vehicle: Klucel (hydroxypropylcellulose) (HPC)
[6] = dose: 400.0 mg/kg/injection, schedule: Q01DX009 (ip), vehicle: Klucel (hydroxypropylcellulose) (HPC)
[7] = dose: 400.0 mg/kg/injection, schedule: Q04DX003 (ip), vehicle: Klucel (hydroxypropylcellulose) (HPC)
[8] = dose: 100.0 mg/kg/injection, schedule: Q01DX001 (ip), vehicle: saline with Tween-80
[9] = dose: 100.0 mg/kg/injection, schedule: Q01DX009 (ip), vehicle: saline with Tween-80
[10] = dose: 100.0 mg/kg/injection, schedule: Q04DX003 (ip), vehicle: saline with Tween-80
[11] = dose: 200.0 mg/kg/injection, schedule: Q04DX003 (ip), vehicle: saline with Tween-80
[12] = dose: 400.0 mg/kg/injection, schedule: Q04DX003 (ip), vehicle: saline with Tween-80
[13] = dose: 200.0 mg/kg/injection, schedule: Q01DX009 (ip), vehicle: saline with Tween-80
[14] = dose: 400.0 mg/kg/injection, schedule: Q01DX009 (ip), vehicle: saline with Tween-80

Measured: T/C

FC(F)(F)c1nc(Cl)c2cn[nH]c2n1
inactive: dose: 44.0 mg/kg/injection, schedule: Q01DX Z (ip), vehicle: methylcellulose (MC) 104 % of control | dose: 66.0 mg/kg/injection, schedule: Q01DX Z (ip), vehicle: methylcellulose (MC) 103 % of control | dose: 100.0 mg/kg/injection, schedule: Q01DX Z (ip), vehicle: methylcellulose (MC) 100 % of control

O=C(Nc1ccnc(=O)[nH]1)c1ccccc1
inactive: [1] 91 % of control | dose: 200.0 mg/kg/injection, schedule: Q01DX001 (ip), vehicle: Klucel (hydroxypropylcellulose) (HPC) 100 % of control | dose: 400.0 mg/kg/injection, schedule: Q01DX001 (ip), vehicle: Klucel (hydroxypropylcellulose) (HPC) 92 % of control

Oc1c(C(c2ccccc2)N2CCCC2)ccc2ccccc12 (stereo unspecified)
inactive: dose: 75.0 mg/kg/injection, schedule: Q04DX003 (ip), vehicle: saline with Tween-80 100 % of control | dose: 150.0 mg/kg/injection, schedule: Q04DX003 (ip), vehicle: saline with Tween-80 92 % of control | dose: 300.0 mg/kg/injection, schedule: Q04DX003 (ip), vehicle: saline with Tween-80 96 % of control

S=C(NCc1ccco1)Nc1cccc2ccccc12
inactive: dose: 100.0 mg/kg/injection, schedule: Q04DX002 (ip), vehicle: gum acacia 101 % of control | dose: 200.0 mg/kg/injection, schedule: Q04DX002 (ip), vehicle: gum acacia 88 % of control | dose: 400.0 mg/kg/injection, schedule: Q04DX002 (ip), vehicle: gum acacia 98 % of control

CCC(=O)Nc1ccc(Cl)cc1
inactive: [2] 87 % of control | [3] 95 % of control | [4] 93 % of control | [5] 95 % of control | [6] 104 % of control | [7] 95 % of control

NCC1OC(n2cnc3c(N)ncnc32)CC1O (stereo unspecified)
inactive: dose: 50.0 mg/kg/injection, schedule: Q01DX001 (ip), vehicle: carboxymethylcellulose (CMC) 107 % of control | dose: 100.0 mg/kg/injection, schedule: Q01DX001 (ip), vehicle: carboxymethylcellulose (CMC) 107 % of control | dose: 200.0 mg/kg/injection, schedule: Q01DX001 (ip), vehicle: carboxymethylcellulose (CMC) 109 % of control | dose: 400.0 mg/kg/injection, schedule: Q01DX001 (ip), vehicle: carboxymethylcellulose (CMC) 104 % of control

CCCCCCCCP(=O)(CCCC)CCCCCCCC
inactive: dose: 25.0 mg/kg/injection, schedule: Q01DX001 (ip), vehicle: saline with Tween-80 100 % of control | dose: 50.0 mg/kg/injection, schedule: Q01DX001 (ip), vehicle: saline with Tween-80 101 % of control | [8] 100 % of control and 104 % of control

C1=CC2CC1C1CC21 (stereo unspecified)
inactive: dose: 75.0 mg/kg/injection, schedule: Q01DX001 (ip), vehicle: saline 100 % of control | dose: 150.0 mg/kg/injection, schedule: Q01DX001 (ip), vehicle: saline 96 % of control | dose: 300.0 mg/kg/injection, schedule: Q01DX001 (ip), vehicle: saline 96 % of control

NS(=O)(=O)c1ccc(NC(=O)Nc2cccc(Cl)c2Cl)cc1
inactive: [2] 101 % of control | [4] 101 % of control | [6] 95 % of control

COc1ccc(CC#N)cc1
inactive: dose: 2.5 mg/kg/injection, schedule: Q04DX002 (ip), vehicle: Klucel (hydroxypropylcellulose) (HPC) 103 % of control | dose: 5.0 mg/kg/injection, schedule: Q01DX009 (ip), vehicle: Klucel (hydroxypropylcellulose) (HPC) 91 % of control | dose: 5.0 mg/kg/injection, schedule: Q04DX002 (ip), vehicle: Klucel (hydroxypropylcellulose) (HPC) 98 % of control | dose: 10.0 mg/kg/injection, schedule: Q01DX009 (ip), vehicle: Klucel (hydroxypropylcellulose) (HPC) 89 % of control | dose: 10.0 mg/kg/injection, schedule: Q04DX002 (ip), vehicle: Klucel (hydroxypropylcellulose) (HPC) 98 % of control and 110 % of control | dose: 20.0 mg/kg/injection, schedule: Q01DX009 (ip), vehicle: Klucel (hydroxypropylcellulose) (HPC) 92 % of control

Cc1ccc(-n2c(=O)c(N=Nc3ccc(Cl)cc3)c(O)n(-c3ccccc3Cl)c2=S)cc1
inactive: dose: 25.0 mg/kg/injection, schedule: Q01DX001 (ip), vehicle: Klucel (hydroxypropylcellulose) (HPC) 97 % of control | dose: 50.0 mg/kg/injection, schedule: Q01DX001 (ip), vehicle: Klucel (hydroxypropylcellulose) (HPC) 101 % of control | [1] 92 % of control

Cc1cc[n+]2cc3c(ccc4ccccc43)c(C)c2c1
inactive: dose: 2.0 mg/kg/injection, schedule: Q01DX015 (ip), vehicle: carboxymethylcellulose (CMC) 103 % of control | dose: 4.0 mg/kg/injection, schedule: Q01DX015 (ip), vehicle: carboxymethylcellulose (CMC) 124 % of control | dose: 8.0 mg/kg/injection, schedule: Q01DX015 (ip), vehicle: carboxymethylcellulose (CMC) 117 % of control | dose: 16.0 mg/kg/injection, schedule: Q01DX015 (ip), vehicle: carboxymethylcellulose (CMC) 98 % of control | dose: 25.0 mg/kg/injection, schedule: Q01DX001 (ip), vehicle: carboxymethylcellulose (CMC) 107 % of control

CC1(C)NC(=O)C(/C=C/c2ccccc2)O1 (stereo unspecified)
inactive: dose: 25.0 mg/kg/injection, schedule: Q01DX009 (ip), vehicle: Klucel (hydroxypropylcellulose) (HPC) 102 % of control | dose: 25.0 mg/kg/injection, schedule: Q04DX003 (ip), vehicle: Klucel (hydroxypropylcellulose) (HPC) 97 % of control | dose: 50.0 mg/kg/injection, schedule: Q01DX009 (ip), vehicle: Klucel (hydroxypropylcellulose) (HPC) 100 % of control | dose: 50.0 mg/kg/injection, schedule: Q04DX003 (ip), vehicle: Klucel (hydroxypropylcellulose) (HPC) 95 % of control | [2] 89 % of control | [3] 97 % of control | [5] 92 % of control | [7] 101 % of control

COc1ccc2[nH]c(-c3ccccc3)c(-c3ccccc3)c2c1
inactive: [9] 90 % of control | [10] 89 % of control | [11] 87 % of control | [12] 92 % of control

Cc1cccc(NC(=O)Oc2cc(C)c(Cl)cc2C(C)C)c1
inactive: [8] 103 % of control | [9] 95 % of control and 103 % of control | dose: 100.0 mg/kg/injection, schedule: Q04DX002 (ip), vehicle: saline with Tween-80 105 % of control and 108 % of control | [10] 90 % of control | dose: 200.0 mg/kg/injection, schedule: Q01DX001 (ip), vehicle: saline with Tween-80 104 % of control | [13] 98 % of control and 103 % of control | dose: 200.0 mg/kg/injection, schedule: Q04DX002 (ip), vehicle: saline with Tween-80 97 % of control and 87 % of control | [11] 98 % of control | dose: 400.0 mg/kg/injection, schedule: Q01DX001 (ip), vehicle: saline with Tween-80 106 % of control | [14] 95 % of control and 98 % of control | dose: 400.0 mg/kg/injection, schedule: Q04DX002 (ip), vehicle: saline with Tween-80 94 % of control and 100 % of control | [12] 100 % of control

Nc1nc(N)c(CCCOc2ccccc2)c(N)n1
inactive: dose: 100.0 mg/kg/injection, schedule: Q04DX002 (ip), vehicle: saline 105 % of control | dose: 200.0 mg/kg/injection, schedule: Q04DX002 (ip), vehicle: saline 105 % of control

CC(=O)OC1C(CF)OC(n2ccc(=O)[nH]c2=O)C1OC(C)=O (stereo unspecified)
inactive: dose: 100.0 mg/kg/injection, schedule: Q01DX005 (ip), vehicle: saline 105 % of control | dose: 200.0 mg/kg/injection, schedule: Q01DX005 (ip), vehicle: saline 123 % of control

Cc1nc2cc3ccccc3c3ccc4cccc1c4c23
inactive: [9] 93 % of control | [13] 93 % of control | [14] 87 % of control
